According to US20230159510A1, “NOVEL PRMT5 INHIBITORS” (AMGEN INC., priority 2020, published 2023):

Experiments:
HCT116 MTAP null cells = assay: HCT116 proliferation assay, MTAP null cells (CellTiter-Glo, 6 days); format: cell-based; details: HCT116-MTAP null, 144 h, read-out: Protif_ HCT116-MTAP null IC50
Method in brief: (§1)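 Both lines grow in RPMI 1640 containing 10% fetal bovine serum. After an overnight rest, they receive compound at up to 1 or 10 µM in threefold serial dilutions, with vehicle wells holding DMSO only.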

HCT116 WT cells = assay: HCT116 proliferation assay, WT cells (CellTiter-Glo, 6 days); format: cell-based; details: Homo sapiens, HCT-116, 144 h, read-out: Prolif_HCT116-WT IC50
Method in brief: as §1

PRMT5/MEP50 = PRMT5/MEP50 (Homo sapiens, UniProt O14744); assay: MTase-Glo methyl transferase assay, Method B (FL-Histone H2A, 1 µM MTA, 1 h pre-incubation); format: biochemical; parameters: purchased Reaction Biology Corp RD-11-292; details: read-out: PRMT5 MTase Glo Ki (nM, Meth. B)
PRMT5/MEP50, sequence (O14744 2-637 limits assumed): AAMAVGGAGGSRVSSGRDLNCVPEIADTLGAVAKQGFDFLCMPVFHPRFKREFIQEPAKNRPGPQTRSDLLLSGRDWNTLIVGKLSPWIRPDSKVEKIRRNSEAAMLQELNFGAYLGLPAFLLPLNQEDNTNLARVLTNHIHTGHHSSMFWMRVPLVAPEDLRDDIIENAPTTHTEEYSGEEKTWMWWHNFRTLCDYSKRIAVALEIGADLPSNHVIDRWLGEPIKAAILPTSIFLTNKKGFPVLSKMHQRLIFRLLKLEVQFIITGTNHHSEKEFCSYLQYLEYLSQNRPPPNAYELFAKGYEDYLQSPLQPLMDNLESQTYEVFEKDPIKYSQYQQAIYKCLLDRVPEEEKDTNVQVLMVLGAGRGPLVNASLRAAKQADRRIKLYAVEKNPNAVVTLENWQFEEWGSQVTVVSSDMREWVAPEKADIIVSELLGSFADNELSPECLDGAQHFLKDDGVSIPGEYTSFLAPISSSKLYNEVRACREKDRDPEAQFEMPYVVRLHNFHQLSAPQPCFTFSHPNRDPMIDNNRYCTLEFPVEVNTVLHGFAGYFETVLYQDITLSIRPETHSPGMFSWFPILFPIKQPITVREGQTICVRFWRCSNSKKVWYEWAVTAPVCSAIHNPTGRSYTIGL
PRMT5/MEP50, sequence (Q9BQA1 2-342 partner limits assumed): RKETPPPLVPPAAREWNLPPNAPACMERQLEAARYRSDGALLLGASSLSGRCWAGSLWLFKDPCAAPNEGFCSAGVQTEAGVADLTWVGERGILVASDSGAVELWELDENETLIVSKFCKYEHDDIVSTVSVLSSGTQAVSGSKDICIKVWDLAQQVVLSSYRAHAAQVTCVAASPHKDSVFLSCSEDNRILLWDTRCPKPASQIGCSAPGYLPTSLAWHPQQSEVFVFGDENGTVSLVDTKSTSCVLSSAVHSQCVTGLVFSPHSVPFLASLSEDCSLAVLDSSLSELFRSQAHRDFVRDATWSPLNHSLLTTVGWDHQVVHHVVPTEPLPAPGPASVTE
Method in brief: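 PRMT5/MEP50 (4 nM) was pre-incubated 1 h with compound, 5 µM SAM and 1 µM MTA, then started with 2.5 µM FL-Histone H2A in Tris pH 8.0 buffer. After 20 h at room temperature, SAH was detected by MTase-Glo luminescence, and IC50/KI were fitted from dose-response curves.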

SMILES	IC50 (HCT116 MTAP null cells)	IC50 (HCT116 WT cells)	Ki (PRMT5/MEP50)
Cc1cc2cc(C(=O)N(Cc3ccc(C(F)(F)F)cn3)Cc3cocn3)ccc2nc1N [Example 580, 2-amino-3-methyl-N-(oxazol-4-ylmethyl)-N-[[5-(trifluoromethyl)-2-pyridyl]methyl] quinoline-6-carboxamide]	0.11 µM	5.6 µM	2.24 nM
Cc1cc2cc(C(=O)N(Cc3ccc4[nH]c(N)nc4c3)Cc3ccc(C(F)(F)F)cn3)ccc2nc1N [Example 616, 2-amino-N-((2-amino-1H-benzo [d]imidazol-5-yl)methyl)-3-methyl-N-((5-(trifluoromethyl)pyridin-2-yl)methyl)quinoline-6-carboxamide]	0.32 µM	> 1 µM	3.29 nM
Cc1cc2cc(C(=O)N(Cc3ccc(C(F)(F)F)cn3)C3CCCC(O)C3)ccc2nc1N (stereo not drawn) [Example 612, 2-amino-N-(3-hydroxycyclohexyl)-3-methyl-N-((5-(trifluoromethyl)pyridin-2-yl)methyl)quinoline-6-carboxamide]	0.34 µM	> 1 µM	7.56 nM
Cc1cc2cc(C(=O)N(Cc3ccc(C(F)(F)F)cn3)C3CCCC3C#N)ccc2nc1N (stereo not drawn) [Example 699, 2-amino-N-(2-cyanocyclopentyl)-3-methyl-N-[[5-(trifluoromethyl)-2-pyridyl]methyl] quinoline-6-carboxamide]	0.05 µM	> 1 µM	3.86 nM
Cc1cc2cc(C(=O)N(Cc3ccc(C(F)(F)F)cn3)Cc3c[nH]c4ccccc34)ccc2nc1N [Example 567, 2-amino-N-(1H-indol-3-ylmethyl)-3-methyl-N-[[5-(trifluoromethyl)-2-pyridyl]methyl] quinoline-6-carboxamide]	0.103 µM	> 1 µM	4.44 nM
Cc1cc2cc(C(=O)N(Cc3ccc(C(F)(F)F)cn3)CC(C)C#N)ccc2nc1N (stereo not drawn) [Example 694, 2-amino-N-(2-cyanopropyl)-3-methyl-N-[[5-(trifluoromethyl)-2-pyridyl]methyl] quinoline-6-carboxamide]	0.224 µM	8.6 µM	5.62 nM
Cc1cc2cc(C(=O)N(Cc3ccc(C(F)(F)F)cn3)C3CC3C3CC3)ccc2nc1N (stereo not drawn) [Example 705, 2-amino-N-(2-cyclopropylcyclopropyl)-3-methyl-N-[[5-(trifluoromethyl)-2-pyridyl]methyl] quinoline-6-carboxamide]	0.76 µM	> 1 µM	9.63 nM
Cc1cc2cc(C(=O)N(Cc3ccc(C(F)(F)F)cn3)CC3CCc4[nH]cnc4C3)ccc2nc1N (stereo not drawn) [Example 617, 2-amino-3-methyl-N-((4,5,6,7-tetrahydro-1H-benzo[d]imidazol-5-yl)methyl)-N-((5-(trifluoromethyl)pyridin-2-yl)methyl)quinoline-6-carboxamide]	0.286 µM	> 1 µM	1.72 nM
Cc1cc2cc(C(=O)N(Cc3ccc4[nH]c(=O)oc4c3)Cc3ccc(C(F)(F)F)cn3)ccc2nc1N [Example 620, 2-amino-3-methyl-N-((2-oxo-2,3-dihydrobenzo [d]oxazol-6-yl)methyl)-N-((5-(trifluoromethyl)pyridin-2-yl)methyl)quinoline-6-carboxamide]	0.1 µM	> 1 µM	1.83 nM
Cc1cc2cc(C(=O)N(Cc3cncc(F)c3)Cc3ccc(C(F)(F)F)cn3)ccc2nc1N [Example 597, 2-amino-N-((5-fluoropyridin-3-yl)methyl)-3-methyl-N-((5-(trifluoromethyl)pyridin-2-yl)methyl)quinoline-6-carboxamide]	0.3 µM	> 1 µM	6.35 nM
Cc1csc(CN(Cc2ccc(C(F)(F)F)cn2)C(=O)c2ccc3nc(N)c(C)cc3c2)n1 [Example 708, 2-amino-3-methyl-N-[(4-methylthiazol-2-yl)methyl]-N-[[5-(trifluoromethyl)-2-pyridyl]methyl]quinoline-6-carboxamide]	0.155 µM	> 1 µM	2.79 nM
Cc1cc2cc(C(=O)N(Cc3ccc(C(F)(F)F)cn3)C3CCCc4occc43)ccc2nc1N (stereo not drawn) [Example 606, 2-amino-3-methyl-N-(4,5,6,7-tetrahydrobenzofuran-4-yl)-N-((5-(trifluoromethyl)pyridin-2-yl)methyl)quinoline-6-carboxamide]	0.027 µM	0.28 µM	2.9 nM
Cc1cc2cc(C(=O)N(Cc3ccc(C(F)(F)F)cn3)CC3(C#N)CC3)ccc2nc1N [Example 577, 2-amino-N-((1-cyanocyclopropyl)methyl)-3-methyl-N-((5-(trifluoromethyl)pyridin-2-yl)methyl)quinoline-6-carboxamide]	0.159 µM	6.65 µM	3.89 nM
COC(CN(Cc1ccc(C(F)(F)F)cn1)C(=O)c1ccc2nc(N)c(C)cc2c1)C(F)(F)F (stereo not drawn) [Example 611, 2-amino-3-methyl-N-(3,3,3-trifluoro-2-methoxypropyl)-N-((5-(trifluoromethyl)pyridin-2-yl)methyl)quinoline-6-carboxamide]	0.07 µM	> 1 µM	3 to 7 nM
Cc1cc2cc(C(=O)N(Cc3ccc4cn[nH]c4c3)Cc3ccc(C(F)(F)F)cn3)ccc2nc1N [Example 619, N-((1H-indazol-6-yl)methyl)-2-amino-3-methyl-N-((5-(trifluoromethyl)pyridin-2-yl)methyl)quinoline-6-carboxamide]	0.128 µM	1.3 µM	1.87 nM
Cc1cc2cc(C(=O)N(Cc3ccc(C(F)(F)F)cn3)Cc3ccnc4[nH]ccc34)ncc2nc1N [Example 684, 2-amino-3-methyl-N-(1H-pyrrolo[2,3-b]pyridin-4-ylmethyl)-N-[[5-(trifluoromethyl)-2-pyridyl]methyl]-1,7-naphthyridine-6-carboxamide]	0.114 µM	> 1 µM	2.29 nM
Cc1nc2c(s1)C(N(Cc1ccc(C(F)(F)F)cn1)C(=O)c1ccc3nc(N)c(C)cc3c1)CCC2 (stereo not drawn) [Example 604, 2-amino-3-methyl-N-(2-methyl-4,5,6,7-tetrahydrobenzo[d]thiazol-7-yl)-N-((5-(trifluoromethyl)pyridin-2-yl)methyl)quinoline-6-carboxamide]	0.044 µM	0.4 µM	5.46 nM
Cc1cc2cc(C(=O)N(CCc3ncon3)Cc3ccc(C(F)(F)F)cn3)ccc2nc1N [Example 576, N-(2-(1,2,4-oxadiazol-3-yl)ethyl)-2-amino-3-methyl-N-((5-(trifluoromethyl)pyridin-2-yl)methyl)quinoline-6-carboxamide]	0.749 µM	> 10 µM	5.89 nM
